Test system: HL-60 cells
Experiment: Apoptosis by cleaved PARP (Asp214) staining, flow cytometry
Type: cell-based
Details: 24 h, control 1.4%
Method: To evaluate the anticancer potential of 5a, the ability of this compound to inhibit cell proliferation, induce apoptotic cell death, and generate DNA damage was examined by flow cytometry using the ‘Apoptosis, DNA Damage, and Cell Proliferation Kit’ (BD Bioscience). After 24 h treatment with 5a in increasing concentrations, HL-60 cells were exposed to bromodeoxyuridine (BrdU) for additional 8 h. Then, the cells were simultaneously stained with fluorochrome-labeled anti-BrdU, anti-cleaved PARP (Asp214) and anti-H2AX (pS139).
To check whether the cytotoxic effect of 5a was associated with the induction of apoptosis, the pro-apoptotic activity of this compound was investigated. Apoptosis regulation is triggered by the activation of caspases. Caspase-3, an effector caspase, cleaves a number of vital proteins, leading to cell death. The activity of caspase-3 was assessed by flow cytometry using fluorochrome-labeled antibodies recognizing 89 kDa-cleaved PARP fragments released from PARP by caspase-3 in the executive stage of apoptosis.
Cell proliferation, DNA damage, and apoptotic cell death were determined using Apoptosis, DNA Damage, and Cell Proliferation Kit (BD Bioscience, San Jose, CA, USA), according to the manufacturer protocol. Briefly, HL-60 cells were seeded in 6-well plates (4.0 × 10^5 cells/mL) in 2 mL of growth medium and treated with 5a for 24 h. Afterwards, the bromodeoxyuridine (BrdU, 10 µM) was added and the cells were incubated for additional 8 h. Next, the cells were collected by centrifugation (300× g, 5 min), counted, fixed, and permeabilized according to the manufacturer’s instructions. The cells were incubated with DNase (300 µg/mL in PBS) for 1 h at 37 °C and then simultaneously stained with fluorochrome-labeled anti-BrdU, H2AX (pS139), and cleaved PARP (Asp214) antibodies, for 20 min at room temperature. After washing, DNA staining with DAPI (1 µg/mL of the staining buffer) was performed, and the cells were analyzed by flow cytometry using CytoFLEX (Beckman Coulter, Inc., Brea, CA, USA).

CCOP(=O)(OCC)C1=C(O)c2ccccc2N(S(=O)(=O)c2ccccc2)C1CC (centres unmarked) [Compound 10a]
apoptotic cells (cleaved PARP positive) population (1.35 µM): 20.6% | apoptotic cells (cleaved PARP positive) population (1.8 µM): 26.4%

— paper PMC9181899, “Synthesis and Anticancer Properties of New 3-Methylidene-1-sulfonyl-2,3-dihydroquinolin-4(1H)-ones” (Molecules, 2022)
